Experimental data reported in US11685719B2, “Pyridinone MK2 inhibitors and uses thereof” (Xinthera, Inc., priority 2021, dated 2023).
Like-named read-outs stand apart in the source and are kept apart here.

Key:
p38a/PRAK = p38a/PRAK (Homo sapiens (Human), UniProt Q16539); assay: biochemical; settings: 10-point 1:3 dilution, top dose 300 μM; 10 μM ATP, 2 h incubation; read-out: p38a/PRAK Enzyme pIC50 (converted)
Method: (§1) Expression vectors of the recombinant MK2 and PRAK kinases were constructed by cloning of the codon optimized gene sequences of MK2 (Uniprot ID P49137, amino acid fragment F46-H400), or PRAK (Uniprot ID Q81W41, amino acid fragment M1-Q471) into pGEX-4T1 (GE) for over expression of these kinases with N-terminal GST-tag. Protein expression was carried out in E. coli BL21 by growing the hosts in TB medium, induction of protein expression with 0.5 mM IPTG at approximate 0.8 OD600, and incubation of the cultures at 18° C. for 14-20 hours afterwards. The harvested cells were resuspended in […] of Lysis buffer (50 mM Tris-HCl, pH 8.0, 500 mM NaCl, 1 mM DTT, 5% glycerol, and 1 mM PMSF) per gram of wet cell mass and homogenized at 4° C. in a microfluidizer (ATS, Suzhou, China) at 14,000 psi pressure, 3 passes. The cell lysates were clarified by centrifugation and the supernatants containing the GST-fusion proteins were purified by affinity chromatography using GSH-Sepharose (GE) gravity flow columns pre-equilibrated in Buffer A (50 mM Tris-HCl, pH 8.0, 500 mM NaCl, 1 mM DTT, and 5% glycerol). After thorough washing of the columns with Buffer A, the bound GST-proteins were eluted by Buffer B (50 mM Tris, pH 8.0, 500 mM NaCl, 1 mM DTT, 5% glycerol, 10 mM glutathione), followed by size-exclusion purification on Superdex 200 column equilibrated in Buffer A. The purified proteins were concentrated to approximately 1 mg/ml and stored at −80° C.
(§2) This study evaluates the inhibitory potency of invention compound on p38/MK2 pathway vs p38/PRAK pathway. More specially the compound concentration (IC50) was determined that inhibited half of the maximal activation of MK2 or PRAK by p38. MK2 activation study was set up without or with a serial of 10-point 1:3 dilution of invention compound at top dose of 1 or 10 μM, and PRAK activation study was set up without or with a serial of 10-point 1:3 dilution of invention compound at top dose of 300 μM. The MIK2 and PRAK activity were determined by the phosphorylation level of HSP27 peptide conjugated with FITC.

p38a/MK2 = p38a/MK2 (Homo sapiens (Human), UniProt P49137+Q16539); assay: biochemical; settings: 10-point 1:3 dilution, 10 μM ATP, 2 h incubation
Method: as §1, §2

[1] = top dose 1 μM, read-out: p38a/MK2 (1 μM) Enzyme pIC50 (converted)
[2] = top dose 10 μM, read-out: p38a/MK2 (10 μM) Enzyme pIC50 (converted)

Chain of p38a/MK2 (Q16539 whole entry): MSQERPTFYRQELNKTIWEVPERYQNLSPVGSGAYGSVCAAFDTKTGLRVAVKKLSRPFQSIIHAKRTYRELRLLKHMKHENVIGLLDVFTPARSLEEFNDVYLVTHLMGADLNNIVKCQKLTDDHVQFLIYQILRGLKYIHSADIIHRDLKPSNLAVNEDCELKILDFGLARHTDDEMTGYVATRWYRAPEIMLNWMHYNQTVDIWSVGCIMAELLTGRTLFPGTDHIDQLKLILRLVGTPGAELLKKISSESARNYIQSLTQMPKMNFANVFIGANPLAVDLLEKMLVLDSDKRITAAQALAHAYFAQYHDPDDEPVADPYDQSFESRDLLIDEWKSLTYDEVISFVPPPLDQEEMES
Chain of p38a/MK2 (P49137 46-400): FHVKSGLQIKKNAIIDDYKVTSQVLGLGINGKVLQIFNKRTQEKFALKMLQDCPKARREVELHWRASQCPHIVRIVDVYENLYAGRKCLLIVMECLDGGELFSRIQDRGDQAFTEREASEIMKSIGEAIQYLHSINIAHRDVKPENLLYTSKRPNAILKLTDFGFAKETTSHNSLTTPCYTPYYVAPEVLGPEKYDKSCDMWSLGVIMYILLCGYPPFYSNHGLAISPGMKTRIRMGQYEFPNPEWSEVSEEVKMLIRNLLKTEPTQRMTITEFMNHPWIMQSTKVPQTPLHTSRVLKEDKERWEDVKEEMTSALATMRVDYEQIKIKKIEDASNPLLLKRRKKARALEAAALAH
Chain of p38a/PRAK (Q16539 whole entry, the tested form may be a part): as the sequence (Q16539 whole entry) above

Compound	IC50 (p38a/PRAK)	IC50 (p38a/MK2; [1])	IC50 (p38a/MK2; [2])
Cc1cnc(-n2cccc(C(C)(C)O)c2=O)cc1-n1c(C)cc(OCc2ncc(F)cc2F)c(Cl)c1=O (single isomer, unassigned) [Example 1A, rel-3-chloro-4-[(3,5-difluoropyridin-2-yl)methoxy]-2′-[3-(2-hydroxypropan-2-yl)-2-oxopyridin-1-yl]-5′,6-dimethyl-[1,4′-bipyridin]-2-one]	3.16 µM	2 nM	3.16 nM
Cc1cnc(-n2cccc(C(C)(C)O)c2=O)cc1-n1c(C)cc(OCc2ncc(F)cc2F)c(Cl)c1=O (single isomer, unassigned) [Example 1B, rel-3-chloro-4-[(3,5-difluoropyridin-2-yl)methoxy]-2′-[3-(2-hydroxypropan-2-yl)-2-oxopyridin-1-yl]-5′,6-dimethyl-[1,4′-bipyridin]-2-one]	> 316 µM		398 nM
Cc1ccc(-n2cccc(C(C)(C)O)c2=O)cc1-n1c(C)cc(OCc2ncc(F)cc2F)c(Cl)c1=O (single isomer, unassigned) [Example 2B, rel-3-chloro-4-[(3,5-difluoropyridin-2-yl)methoxy]-1-{5-[3-(2-hydroxypropan-2-yl)-2-oxopyridin-1-yl]-2-methylphenyl}-6-methylpyridin-2-one]	> 316 µM	> 1000 nM	
Cc1cnc(-n2cc(C(C)(C)O)ccc2=O)cc1-n1c(C)cc(OCc2ncc(F)cc2F)c(Cl)c1=O (single isomer, unassigned) [Example 13B, rel-3-chloro-4-[(3,5-difluoropyridin-2-yl)methoxy]-2′-[5-(2-hydroxypropan-2-yl)-2-oxopyridin-1-yl]-5′,6-dimethyl-[1,4′-bipyridin]-2-one]	15.8 µM		

Continued, in another order:

IC50 (p38a/PRAK)	IC50 (p38a/MK2; [1])	Compound	IC50 (p38a/MK2; [2])
6.31 µM	20 nM	CCOC(=O)C(C)(C)n1nc(-c2cc(-n3c(C)cc(OCc4ncc(F)cc4F)c(Cl)c3=O)c(C)cn2)ccc1=O (atropisomer, axis not shown) [Example 6, ethyl 2-(3-{3-chloro-4-[(3,5-difluoropyridin-2-yl)methoxy]-5′,6-dimethyl-2-oxo-[1,4′-bipyridin]-2′-yl}-6-oxopyridazin-1-yl)-2-methylpropanoate]	
1.26 µM	3.98 nM	Cc1ccc(-n2cccc(C(C)(C)O)c2=O)cc1-n1c(C)cc(OCc2ncc(F)cc2F)c(Cl)c1=O (single isomer, unassigned) [Example 2A, rel-3-chloro-4-[(3,5-difluoropyridin-2-yl)methoxy]-1-{5-[3-(2-hydroxypropan-2-yl)-2-oxopyridin-1-yl]-2-methylphenyl}-6-methylpyridin-2-one]	
5.01 µM	6.31 nM	COCc1cc(OCc2ncc(F)cc2F)c(Cl)c(=O)n1-c1cc(-n2cccc(C(C)(C)O)c2=O)ncc1C (single isomer, unassigned) [Example 3A, rel-3-chloro-4-[(3,5-difluoropyridin-2-yl)methoxy]-2′-[3-(2-hydroxypropan-2-yl)-2-oxopyridin-1-yl]-6-(methoxymethyl)-5′-methyl-[1,4′-bipyridin]-2-one]	
> 316 µM	> 1000 nM	COCc1cc(OCc2ncc(F)cc2F)c(Cl)c(=O)n1-c1cc(-n2cccc(C(C)(C)O)c2=O)ncc1C (single isomer, unassigned) [Example 3B, rel-3-chloro-4-[(3,5-difluoropyridin-2-yl)methoxy]-2′-[3-(2-hydroxypropan-2-yl)-2-oxopyridin-1-yl]-6-(methoxymethyl)-5′-methyl-[1,4′-bipyridin]-2-one]	
5.01 µM	2 nM	Cc1cnc(-n2cccc(C(C)(C)O)c2=O)cc1-n1c(C)cc(OCc2ncc(Cl)cc2F)c(Cl)c1=O (single isomer, unassigned) [Example 4A, rel-3-chloro-4-[(5-chloro-3-fluoropyridin-2-yl)methoxy]-2′-[3-(2-hydroxypropan-2-yl)-2-oxopyridin-1-yl]-5′,6-dimethyl-[1,4′-bipyridin]-2-one]	
